Reference: publication PMC11206988, “Study on the Effect of Pharmaceutical Excipient PEG400 on the Pharmacokinetics of Baicalin in Cells Based on MRP2, MRP3, and BCRP Efflux Transporters” (Pharmaceutics, 2024)

Legend:
HepG2 cells = experiment: Pharmacokinetic study of baicalin in HepG2 cells (intracellular concentrations by UPLC-MS/MS); format: in vitro ADME, human; conditions: for AUC0–t increase compared with the control group: HepG2 cells
Experimental: (§1) The samples were quantified by UPLC-MS/MS, which consisted of a Dionex Ultimate 3000 UPLC system (Thermo Fisher Scientific, Waltham, MA, USA) and a triple quadrupole tandem mass spectrometer (Thermo Fisher Scientific, Waltham, MA, USA). The mass spectrometry was performed using an ESI ion source and in positive ion mode. The chromatograms are shown in Figure S1 of the Supplementary Materials. The samples were analyzed by a Waters XBridge BEH C18 column (2.1 × 100 mm). Mobile phase A consists of acetonitrile, while mobile phase B consists of water containing 0.1% formic acid. The elution program was as follows: B was initially 90%, 0 to 9 min B decreased from 90% to 27%, and 9.1 min to 12 min increased from 27% to 90% B. The flow rate of the mobile phase was 0.3 mL/min, the temperature of the automatic injector was 5 °C, and the injection volume was 10 μL. The m/z for BG and B6G was 447 → 271, for baicalein m/z 271 → 123, and for genistein (IS) m/z 271 → 153. Other mass spectrometry parameters included sheath gas (Arb) pressure, 20 psi, and auxiliary gas (Arb) pressure, 2 psi; source voltage, 4.8 KV, and capillary voltage, 2.5 KV; and ion-transfer-tube temperature, 375 °C, and atomization temperature, 275 °C.
(§2) HepG2 cells were cultured at a density of 1×10^5 cells/mL in 12-well plates for 24 h to facilitate the conduct of cellular pharmacokinetic experiments. The old medium was aspirated and discarded, the wells were rinsed twice with PBS, and 1 mL of 100 μM baicalin and baicalin + PEG400 (0.25%, 0.5%, and 1%) was added into 12-well plates to initiate the timer. The culture was terminated after 0.25 h, 0.5 h, 1 h, 2 h, 4 h, 6 h, 8 h, 10 h, 12 h, and 24 h, respectively. Upon reaching the designated time for administration, the cell culture medium was removed, and the wells were washed with 1 mL of cold PBS solution. Subsequently, 240 μL of ultra-pure water were added to each well, and the sample was stored at −80 °C until analysis. The sample was subjected to sonication in an ice bath for 10 min in order to lyse the cells, thereby enabling the determination of the accumulated drug concentration within the cells. Subsequently, 20 μL of the cell lysate was collected, and the protein concentration was quantified using a BCA kit for normalization.
(§3) After repeated freeze-thaw lysis, 100 μL of cell samples were taken, and 300 μL of 0.2% formic acid acetonitrile (containing 200 ng/mL genistein) were added to the vortex for 10 min to precipitate proteins and then centrifuged at 14,000 r/min for 10 min. Then the supernatant was blown dry under nitrogen at 40 °C and then reconstituted with 200 μL of methanol and centrifuged at 14,000 rpm for 10 min. The supernatant was subjected to UPLC-MS/MS analysis.

[1] = as above; format: in vitro ADME, human; conditions: human, intracellular; for AUC(0-t) at 100 μM / Cmax at 100 μM / half-life at 100 μM: HepG2 cells
Experimental: as §1, §2, §3

[2] = HepG2 cells given 100 μM baicalin + H PEG400 (1%)
[3] = HepG2 cells given 100 μM baicalin + L PEG400 (0.25%)
[4] = HepG2 cells given 100 μM baicalin + M PEG400 (0.5%)
[5] = HepG2 cells given 100 μM baicalin alone (group BG, control)

| Tmax (HepG2 cells; human) [h] | t1/2 (HepG2 cells; human) [h] | SMILES | AUC0–t increase compared with the control group (HepG2 cells; baicalin + high PEG400 (1%) vs baicalin alone) [fold] | AUC0–t increase compared with the control group (HepG2 cells; baicalin + low PEG400 (0.25%) vs baicalin alone) [fold] | AUC0–t increase compared with the control group (HepG2 cells; baicalin + medium PEG400 (0.5%) vs baicalin alone) [fold] | AUC(0-t) at 100 μM [1, 2] [ng·h/mL] | Cmax at 100 μM [1, 2] [ng/mL] | half-life at 100 μM [1, 2] [h] | AUC(0-t) at 100 μM [1, 3] [ng·h/mL] | Cmax at 100 μM [1, 3] [ng/mL] | half-life at 100 μM [1, 3] [h] | AUC(0-t) at 100 μM [1, 4] [ng·h/mL] | Cmax at 100 μM [1, 4] [ng/mL] | half-life at 100 μM [1, 4] [h] | Cmax at 100 μM [1, 5] [ng/mL] | half-life at 100 μM [1, 5] [h] | AUC(0-t) at 100 μM ([1]; HepG2 cells given 100 μM baicalin alone (group BG, control), 0.25-24 h) [ng·h/mL] | Tmax at 100 μM [1, 5] [h] |
| --- | --- | --- | --- | --- | --- | --- | --- | --- | --- | --- | --- | --- | --- | --- | --- | --- | --- | --- |
| 6.00 | 5.19 ± 2.37 | O=C(O)[C@H]1O[C@@H](Oc2c(O)cc3oc(-c4ccccc4)cc(=O)c3c2O)[C@H](O)[C@@H](O)[C@@H]1O [B6G, Baicalein-6-O-β-D-glucuronide] | – | – | – | – | – | – | – | – | – | – | – | – | – | – | – | – |
| – | – | O=c1cc(-c2ccccc2)oc2cc(O)c(O)c(O)c12 [B, baicalein] | 1.27 | 1.26 | 1.23 | 5640 ± 70 | 510 ± 10 | 6.43 ± 1.85 | 5610 ± 90 | 550 ± 70 | 3.73 ± 0.54 | 5480 ± 118 | 530 ± 60 | 9.4 ± 8.73 | 350 ± 120 | 17.6 ± 7.99 | 4450 ± 60 | 6 |
